Converted amounts (≈) assume the structure as drawn. Where two headings read alike, the source gives them in different places.
Key:
human (hACC2) = human (hACC2) (Homo sapiens, UniProt O00763); experiment: In vitro ACC inhibition assay (ADP-Glo), hACC2; type: biochemical; settings: 5 nM ACC2, 20 μM ATP, 20 μM acetyl-CoA
Protocol: The detailed procedure is as follows. […] 10 μL ADP glo reagent was added. […] 20 μL kinase detection reagent was added.

Diplodia maydis (Dm) = experiment: Growth inhibition assay of fungal pathogens, Dm; type: cell-based; settings: Stenocarpella maydis, 48 h
Summary of the method: (§1)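 Pathogen growth in 17% V8 broth is measured by OD600 at 24 and 48 hours, after blank subtraction, in the presence of compound at 50, 10 and 2 ppm or 2, 0.4 and 0.08 ppm. Inhibition in percent comes from 48-hour readings against the DMSO control.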

C. albicans = experiment: Antifungal Activity Assay (broth microtiter MIC), C. albicans; type: cell-based, Candida albicans; settings: Candida albicans, ATCC90028, 48 h
Summary of the method: (§2)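 MIC read by eye at 48 h, comparing challenged wells with the growth control. Yeasts grown overnight on Sabouraud dextrose agar at 35° C, suspended in RPMI 1640+MOPS and added at 2.5×10^3 CFU/mL final, following CLSI M27-A3.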

Septoria tritici (St) = experiment: Growth inhibition assay of fungal pathogens, St; type: cell-based; settings: Zymoseptoria tritici, 48 h
Summary of the method: as §1

[1] = tested on: Fusarium virguliforme (Fv); experiment: Growth inhibition assay of fungal pathogens, Fv; type: cell-based; settings: 48 h
Summary of the method: as §1

Botrtyis cinerea (Bc) = experiment: Growth inhibition assay of fungal pathogens, Bc; type: cell-based; settings: 48 h
Summary of the method: as §1

C. parapsilosis = experiment: Antifungal Activity Assay (broth microtiter MIC), C. parapsilosis; type: cell-based, Candida parapsilosis; settings: Lodderomyces parapsilosis, ATCC22019, 48 h
Summary of the method: as §2

Rhizoctonia solani (Rs) = experiment: Growth inhibition assay of fungal pathogens, Rs; type: cell-based; settings: 48 h
[2] = tested on: Fusarium moniliforme (Fm); experiment: Growth inhibition assay of fungal pathogens, Fm; type: cell-based; settings: for IC90: Fusarium verticillioides, 48 h, read-out: Concentration at 90% Inhibition Fm
Summary of the method: as §1

[3] = Diplodia maydis, growth inhibition at 48 hours vs 2% DMSO control, read-out: Concentration at 90% Inhibition Dm
[4] = Diplodia maydis, growth inhibition vs 2% DMSO control at 48 hours, read-out: Concentration at 90% Inhibition Dm
[5] = Table 3a, ATCC 90028, 3 replicates, MIC recorded at 48 h, read-out: MIC, C. albicans ATCC 90028
[6] = Table 3b (additional results), ATCC 90028, 3 replicates, MIC recorded at 48 h, read-out: MIC, C. albicans ATCC 90028
[7] = Septoria tritici, growth inhibition at 48 hours vs 2% DMSO control, read-out: Concentration at 90% Inhibition St
[8] = Septoria tritici, growth inhibition vs 2% DMSO control at 48 hours, read-out: Concentration at 90% Inhibition St
[9] = growth inhibition at 48 hours vs 2% DMSO control, read-out: Concentration at 90% Inhibition Fv
[10] = growth inhibition vs 2% DMSO control at 48 hours, read-out: Concentration at 90% Inhibition Fv
[11] = Botrtyis cinerea, growth inhibition at 48 hours vs 2% DMSO control, read-out: Concentration at 90% Inhibition Bc
[12] = Botrtyis cinerea, growth inhibition vs 2% DMSO control at 48 hours, read-out: Concentration at 90% Inhibition Bc
[13] = Table 3a, ATCC 22019, 3 replicates, MIC recorded at 48 h, read-out: MIC, C. parapsilosis ATCC 22019
[14] = Table 3b (additional results), ATCC 22019, 3 replicates, MIC recorded at 48 h, read-out: MIC, C. parapsilosis ATCC 22019
[15] = mycelial plugs, growth inhibition at 48 hours vs 2% DMSO control, read-out: Concentration at 90% Inhibition Rs
[16] = mycelial plugs, growth inhibition vs 2% DMSO control at 48 hours, read-out: Concentration at 90% Inhibition Rs
[17] = Fusarium moniliforme, growth inhibition at 48 hours vs 2% DMSO control
[18] = Fusarium moniliforme, growth inhibition vs 2% DMSO control at 48 hours

Chain of human (hACC2) (O00763 whole entry): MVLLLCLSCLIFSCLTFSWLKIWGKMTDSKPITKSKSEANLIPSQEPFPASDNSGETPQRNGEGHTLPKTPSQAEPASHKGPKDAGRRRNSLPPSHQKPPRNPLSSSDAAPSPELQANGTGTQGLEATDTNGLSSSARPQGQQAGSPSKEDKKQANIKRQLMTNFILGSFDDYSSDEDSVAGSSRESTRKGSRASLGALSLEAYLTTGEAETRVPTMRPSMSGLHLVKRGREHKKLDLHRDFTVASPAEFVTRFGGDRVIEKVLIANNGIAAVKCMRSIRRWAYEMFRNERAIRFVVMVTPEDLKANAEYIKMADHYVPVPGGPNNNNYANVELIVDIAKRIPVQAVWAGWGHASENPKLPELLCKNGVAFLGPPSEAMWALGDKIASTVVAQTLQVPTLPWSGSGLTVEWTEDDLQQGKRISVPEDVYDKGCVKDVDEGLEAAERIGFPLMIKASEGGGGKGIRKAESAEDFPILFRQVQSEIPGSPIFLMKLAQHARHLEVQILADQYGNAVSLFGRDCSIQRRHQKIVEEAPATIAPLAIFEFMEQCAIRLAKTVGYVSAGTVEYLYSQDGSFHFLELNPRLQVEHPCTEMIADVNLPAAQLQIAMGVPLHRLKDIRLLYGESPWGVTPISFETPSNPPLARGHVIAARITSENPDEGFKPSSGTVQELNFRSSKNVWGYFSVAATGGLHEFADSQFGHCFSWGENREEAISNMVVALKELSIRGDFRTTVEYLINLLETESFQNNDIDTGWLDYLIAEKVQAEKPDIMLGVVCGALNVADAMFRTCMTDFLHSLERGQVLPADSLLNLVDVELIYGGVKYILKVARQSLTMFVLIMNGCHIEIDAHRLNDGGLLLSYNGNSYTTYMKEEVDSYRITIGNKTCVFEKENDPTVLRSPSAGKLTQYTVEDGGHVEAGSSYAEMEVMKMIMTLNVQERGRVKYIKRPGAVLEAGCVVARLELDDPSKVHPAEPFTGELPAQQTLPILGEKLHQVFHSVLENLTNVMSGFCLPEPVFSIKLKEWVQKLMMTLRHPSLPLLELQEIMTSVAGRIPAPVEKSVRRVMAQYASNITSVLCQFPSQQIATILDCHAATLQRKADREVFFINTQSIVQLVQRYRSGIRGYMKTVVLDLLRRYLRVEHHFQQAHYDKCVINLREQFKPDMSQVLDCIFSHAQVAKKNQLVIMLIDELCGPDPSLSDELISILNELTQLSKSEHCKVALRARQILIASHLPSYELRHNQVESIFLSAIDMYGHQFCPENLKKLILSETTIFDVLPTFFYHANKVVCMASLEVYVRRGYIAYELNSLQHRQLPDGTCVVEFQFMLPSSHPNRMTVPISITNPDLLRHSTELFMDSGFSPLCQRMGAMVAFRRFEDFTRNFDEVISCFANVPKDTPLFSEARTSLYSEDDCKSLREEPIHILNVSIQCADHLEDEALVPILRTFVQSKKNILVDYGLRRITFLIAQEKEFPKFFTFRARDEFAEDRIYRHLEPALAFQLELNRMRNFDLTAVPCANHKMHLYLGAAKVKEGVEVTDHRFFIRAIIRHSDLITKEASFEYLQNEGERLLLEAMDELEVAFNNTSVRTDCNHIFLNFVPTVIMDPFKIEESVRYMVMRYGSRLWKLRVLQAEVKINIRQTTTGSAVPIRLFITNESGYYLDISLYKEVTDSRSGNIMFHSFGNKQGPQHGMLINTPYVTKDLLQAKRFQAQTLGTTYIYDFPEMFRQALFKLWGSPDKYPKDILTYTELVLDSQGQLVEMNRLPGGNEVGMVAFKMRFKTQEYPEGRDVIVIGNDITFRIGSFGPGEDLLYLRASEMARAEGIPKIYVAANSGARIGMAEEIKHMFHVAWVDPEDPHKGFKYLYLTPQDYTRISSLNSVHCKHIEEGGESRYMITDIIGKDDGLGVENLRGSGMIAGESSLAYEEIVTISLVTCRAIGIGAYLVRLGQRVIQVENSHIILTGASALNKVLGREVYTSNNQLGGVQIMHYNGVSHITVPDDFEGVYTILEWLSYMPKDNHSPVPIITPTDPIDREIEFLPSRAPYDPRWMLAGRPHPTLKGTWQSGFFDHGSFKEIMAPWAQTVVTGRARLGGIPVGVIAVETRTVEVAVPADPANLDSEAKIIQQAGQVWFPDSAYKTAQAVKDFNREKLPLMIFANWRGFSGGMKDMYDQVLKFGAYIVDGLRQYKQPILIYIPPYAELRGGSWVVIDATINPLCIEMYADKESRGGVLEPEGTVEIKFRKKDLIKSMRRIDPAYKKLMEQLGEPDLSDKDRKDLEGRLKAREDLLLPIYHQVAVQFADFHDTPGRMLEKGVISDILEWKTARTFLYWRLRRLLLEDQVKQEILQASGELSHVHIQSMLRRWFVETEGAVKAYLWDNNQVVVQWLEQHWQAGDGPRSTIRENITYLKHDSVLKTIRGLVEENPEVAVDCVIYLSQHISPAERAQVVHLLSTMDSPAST

Structure (SMILES) | IC50 (human (hACC2); Table 2a) | IC50 (human (hACC2); Table 2b, additional results) | IC90 (Diplodia maydis (Dm); [3]) | IC90 (Diplodia maydis (Dm); [4]) | MIC (C. albicans; [5]) | MIC (C. albicans; [6]) | IC90 (Septoria tritici (St); [7]) | IC90 (Septoria tritici (St); [8]) | IC90 [1, 9] | IC90 [1, 10] | IC90 (Botrtyis cinerea (Bc); [11]) | IC90 (Botrtyis cinerea (Bc); [12]) | MIC (C. parapsilosis; [13]) | MIC (C. parapsilosis; [14]) | IC90 (Rhizoctonia solani (Rs); [15]) | IC90 (Rhizoctonia solani (Rs); [16]) | IC90 [2, 17] | IC90 [2, 18] | other results
COc1ccc(F)cc1[C@H](Cn1c(=O)n(C(C)(C)C(N)=O)c(=O)c2c(C)c(-n3nccn3)sc21)OCC(C)C [Compound I-8, (R)-2-(1-(2-(5-fluoro-2-methoxyphenyl)-2-isobutoxyethyl)-5-methyl-2,4-dioxo-6-(2H-1,2,3-triazol-2-yl)-1,4-dihydrothieno[2,3-d]pyrimidin-3(2H)-yl)-2-methylpropanamide] | 5 to 10 nM | 5 to 10 nM | 2 µg/mL (≈ 3.58 µM) | 2 µg/mL (≈ 3.58 µM) | 1.1 to 2 µg/mL (≈ 1.97 to 3.58 µM) | 1.01 to 2 µg/mL (≈ 1.81 to 3.58 µM) | > 50 µg/mL | > 50 µg/mL | 2 µg/mL (≈ 3.58 µM) | 2 µg/mL (≈ 3.58 µM) | 2 µg/mL (≈ 3.58 µM) | 2 µg/mL (≈ 3.58 µM) | 2.1 to 4 µg/mL (≈ 3.76 to 7.16 µM) | 2.01 to 4 µg/mL (≈ 3.6 to 7.16 µM) | 2 µg/mL (≈ 3.58 µM) | 2 µg/mL (≈ 3.58 µM) | 0.08 µg/mL (≈ 0.143 µM) | 0.08 µg/mL (≈ 0.143 µM) | 
CCNC(=O)C(C)(C)n1c(=O)c2c(C)c(-n3nccn3)sc2n(C[C@H](OCC(C)C)c2cc(F)ccc2OC)c1=O [Compound I-9, (R)—N-ethyl-2-(1-(2-(5-fluoro-2-methoxyphenyl)-2-isobutoxyethyl)-5-methyl-2,4-dioxo-6-(2H-1,2,3-triazol-2-yl)-1,4-dihydrothieno[2,3-d]pyrimidin-3(2H)-yl)-2-methylpropanamide] | 5 to 10 nM | 1 to 5 nM | 0.4 µg/mL (≈ 0.682 µM) | 0.4 µg/mL (≈ 0.682 µM) | 2.1 to 4 µg/mL (≈ 3.58 to 6.82 µM) | 1.01 to 2 µg/mL (≈ 1.72 to 3.41 µM) | 10 µg/mL (≈ 17 µM) | > 50 µg/mL | 0.4 µg/mL (≈ 0.682 µM) | 0.4 µg/mL (≈ 0.682 µM) | 0.4 µg/mL (≈ 0.682 µM) | 0.4 µg/mL (≈ 0.682 µM) | 2.1 to 4 µg/mL (≈ 3.58 to 6.82 µM) | 1.01 to 2 µg/mL (≈ 1.72 to 3.41 µM) | 0.4 µg/mL (≈ 0.682 µM) | 0.4 µg/mL (≈ 0.682 µM) | 0.08 µg/mL (≈ 0.136 µM) | 0.08 µg/mL (≈ 0.136 µM) | 
COc1ccc(F)cc1[C@H](Cn1c(=O)n(C(C)(C)C(=O)N2CCCCC2)c(=O)c2c(C)c(-n3nccn3)sc21)OCC(C)C [Compound I-11, (R)-1-(2-(5-fluoro-2-methoxyphenyl)-2-isobutoxyethyl)-5-methyl-3-(2-methyl-1-oxo-1-(piperidin-1-yl)propan-2-yl)-6-(2H-1,2,3-triazol-2-yl)thieno[2,3-d]pyrimidine-2,4(1H,3H)-dione] | 10 to 40 nM | 10 to 40 nM |  |  |  |  |  |  |  |  |  |  |  |  |  |  |  |  | IC90 (Diplodia maydis (Dm); read-out: Concentration at 90% Inhibition Dm, Diplodia maydis, growth inhibition at 48 hours vs 2% DMSO control): 0.4 µg/mL (≈ 0.638 µM); IC90 (Diplodia maydis (Dm); read-out: Concentration at 90% Inhibition Dm, Diplodia maydis, growth inhibition vs 2% DMSO control at 48 hours): 0.4 µg/mL (≈ 0.638 µM); MIC (C. albicans; read-out: MIC, C. albicans ATCC 90028, Table 3a, 3 replicates, MIC recorded at 48 h): 1.1 to 2 µg/mL (≈ 1.76 to 3.19 µM); MIC (C. albicans; read-out: MIC, C. albicans ATCC 90028, Table 3b (additional results), 3 replicates, MIC recorded at 48 h): 0.25 to 1 µg/mL (≈ 0.399 to 1.6 µM); IC90 (Septoria tritici (St); read-out: Concentration at 90% Inhibition St, Septoria tritici, growth inhibition at 48 hours vs 2% DMSO control): 10 µg/mL (≈ 16 µM); IC90 (Septoria tritici (St); read-out: Concentration at 90% Inhibition St, Septoria tritici, growth inhibition vs 2% DMSO control at 48 hours): > 50 µg/mL; IC90 ([1]; read-out: Concentration at 90% Inhibition Fv, Fusarium virguliforme, growth inhibition at 48 hours vs 2% DMSO control): 2 µg/mL (≈ 3.19 µM); IC90 ([1]; read-out: Concentration at 90% Inhibition Fv, Fusarium virguliforme, growth inhibition vs 2% DMSO control at 48 hours): 2 µg/mL (≈ 3.19 µM); IC90 (Botrtyis cinerea (Bc); read-out: Concentration at 90% Inhibition Bc, Botrtyis cinerea, growth inhibition at 48 hours vs 2% DMSO control): 0.4 µg/mL (≈ 0.638 µM); IC90 (Botrtyis cinerea (Bc); read-out: Concentration at 90% Inhibition Bc, Botrtyis cinerea, growth inhibition vs 2% DMSO control at 48 hours): 0.4 µg/mL (≈ 0.638 µM); MIC (C. parapsilosis; read-out: MIC, C. parapsilosis ATCC 22019, Table 3a, 3 replicates, MIC recorded at 48 h): 1.1 to 2 µg/mL (≈ 1.76 to 3.19 µM); MIC (C. parapsilosis; read-out: MIC, C. parapsilosis ATCC 22019, Table 3b (additional results), 3 replicates, MIC recorded at 48 h): 1.01 to 2 µg/mL (≈ 1.61 to 3.19 µM); IC90 (Rhizoctonia solani (Rs); read-out: Concentration at 90% Inhibition Rs, Rhizoctonia solani, mycelial plugs, growth inhibition at 48 hours vs 2% DMSO control): 0.4 µg/mL (≈ 0.638 µM); IC90 (Rhizoctonia solani (Rs); read-out: Concentration at 90% Inhibition Rs, Rhizoctonia solani, mycelial plugs, growth inhibition vs 2% DMSO control at 48 hours): 0.4 µg/mL (≈ 0.638 µM); Concentration at 90% Inhibition Fm [2, 17]: AA (compound concentration of 0.08 ppm at 90% inhibition of fungal pathogens); IC90 [2]: 0.08 µg/mL (≈ 0.128 µM)
COc1ccc(F)cc1[C@H](Cn1c(=O)n(C(C)(C)C(=O)N2CCCC2)c(=O)c2c(C)c(-n3nccn3)sc21)OCC(C)C [Compound I-12, (R)-1-(2-(5-fluoro-2-methoxyphenyl)-2-isobutoxyethyl)-5-methyl-3-(2-methyl-1-oxo-1-(pyrrolidin-1-yl)propan-2-yl)-6-(2H-1,2,3-triazol-2-yl)thieno[2,3-d]pyrimidine-2,4(1H,3H)-dione] | 10 to 40 nM | 10 to 40 nM | 0.08 µg/mL (≈ 0.131 µM) | 0.08 µg/mL (≈ 0.131 µM) | 1.1 to 2 µg/mL (≈ 1.8 to 3.26 µM) | 0.25 to 1 µg/mL (≈ 0.408 to 1.63 µM) | 2 µg/mL (≈ 3.26 µM) | 10 µg/mL (≈ 16.3 µM) | 0.4 µg/mL (≈ 0.653 µM) | 0.4 µg/mL (≈ 0.653 µM) | 0.4 µg/mL (≈ 0.653 µM) | 0.4 µg/mL (≈ 0.653 µM) | 2.1 to 4 µg/mL (≈ 3.43 to 6.53 µM) | 1.01 to 2 µg/mL (≈ 1.65 to 3.26 µM) | 0.08 µg/mL (≈ 0.131 µM) | 0.08 µg/mL (≈ 0.131 µM) | 0.08 µg/mL (≈ 0.131 µM) | 0.08 µg/mL (≈ 0.131 µM) | 
COc1ccccc1[C@H](Cn1c(=O)n(C(C)(C)C(N)=O)c(=O)c2c(C)c(-n3nccn3)sc21)OC1CCOCC1 [Compound I-14, (R)-2-(1-(2-(2-methoxyphenyl)-2-((tetrahydro-2H-pyran-4-yl)oxy)ethyl)-5-methyl-2,4-dioxo-6-(2H-1,2,3-triazol-2-yl)-1,4-dihydrothieno[2,3-d]pyrimidin-3(2H)-yl)-2-methylpropanamide] | 1 to 5 nM | 1 to 5 nM | 10 µg/mL (≈ 17.6 µM) | > 50 µg/mL | 0.25 to 1 µg/mL (≈ 0.44 to 1.76 µM) | 0.25 to 1 µg/mL (≈ 0.44 to 1.76 µM) | > 50 µg/mL | > 50 µg/mL | 10 µg/mL (≈ 17.6 µM) | > 50 µg/mL | 2 µg/mL (≈ 3.52 µM) | 2 µg/mL (≈ 3.52 µM) | 1.1 to 2 µg/mL (≈ 1.93 to 3.52 µM) | 2.01 to 4 µg/mL (≈ 3.53 to 7.03 µM) | 10 µg/mL (≈ 17.6 µM) | > 50 µg/mL | 0.08 µg/mL (≈ 0.141 µM) | 0.08 µg/mL (≈ 0.141 µM) | 
CCNC(=O)C(C)(C)n1c(=O)c2c(C)c(-n3nccn3)sc2n(C[C@H](OC2CCOCC2)c2ccccc2OC)c1=O [Compound I-15, (R)—N-ethyl-2-(1-(2-(2-methoxyphenyl)-2-((tetrahydro-2H-pyran-4-yl)oxy)ethyl)-5-methyl-2,4-dioxo-6-(2H-1,2,3-triazol-2-yl)-1,4-dihydro-thieno[2,3-d]pyrimidin-3(2H)-yl)-2-methylpropanamide] | 1 to 5 nM | 1 to 5 nM | 10 µg/mL (≈ 16.8 µM) | > 50 µg/mL | 0.25 to 1 µg/mL (≈ 0.419 to 1.68 µM) | 0.25 to 1 µg/mL (≈ 0.419 to 1.68 µM) | > 50 µg/mL | > 50 µg/mL | 10 µg/mL (≈ 16.8 µM) | > 50 µg/mL | 0.4 µg/mL (≈ 0.67 µM) | 0.4 µg/mL (≈ 0.67 µM) | 0.25 to 1 µg/mL (≈ 0.419 to 1.68 µM) | 0.25 to 1 µg/mL (≈ 0.419 to 1.68 µM) | 10 µg/mL (≈ 16.8 µM) | > 50 µg/mL | 0.08 µg/mL (≈ 0.134 µM) | 0.08 µg/mL (≈ 0.134 µM) | 
